Data reported in the supplement of paper PMC10307832.

What was measured:
Experiment in all cases: relative viability (nuclei count vs DMSO), 5 days (fraction); higher = more cells survive
[1] = compound: Cc1ccc(NC(=O)c2ccc(CN3CCN(C)CC3)cc2)cc1Nc1nc(-c2cccnc2)cs1 [Masitinib] + NC(=O)Nc1cc(-c2cccc(F)c2)sc1C(=O)N[C@H]1CCCNC1 [AZD7762] (partner 0.2 µM)
Method in brief: (§1)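 One day after seeding in 1536-well plates, lung cancer cell lines were dosed by pin tool. Dosing was either single-drug or a fixed anchor-drug dose plus five library-drug doses (not always all listed) in √10 steps. After 5 days, nuclei were stained in one fix-and-stain step and counted on 4× images, and relative viability is the nuclei count of treated wells over that of vehicle wells, given as the median of duplicate plates.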

[2] = compound: CC1=CC(=CC=C1)NC2=NC(=CS2)C3=CC=NC=C3 + CCNC(=O)c1noc(-c2cc(C(C)C)c(O)cc2O)c1-c1ccc(CN2CCOCC2)cc1 [Luminespib] (partner 0.01 µM)
Method in brief: as §1

[3] = compound: Cc1ccc(NC(=O)c2ccc(CN3CCN(C)CC3)cc2)cc1Nc1nc(-c2cccnc2)cs1 [Masitinib] + CS(=O)(=O)N1CCN(Cc2cc3nc(-c4cccc5[nH]ncc45)nc(N4CCOCC4)c3s2)CC1 [Pictilisib] (partner 1 µM)
Method in brief: as §1

[4] = compound: CC1=CC(=CC=C1)NC2=NC(=CS2)C3=CC=NC=C3 + O=C(c1cc(Cc2n[nH]c(=O)c3ccccc23)ccc1F)N1CCN(C(=O)C2CC2)CC1 [Olaparib] (partner 8 µM)
Method in brief: as §1

Cell Line	relative viability ([1]; first compound 0.01 µM)	relative viability ([1]; first compound 0.03162 µM)	relative viability ([1]; first compound 0.1 µM)	relative viability ([1]; first compound 0.3162 µM)	relative viability ([1]; first compound 1 µM)	relative viability ([2]; first compound 0.08 µM)	relative viability ([2]; first compound 0.253 µM)	relative viability ([2]; first compound 0.8 µM)	relative viability ([2]; first compound 2.53 µM)	relative viability ([2]; first compound 8 µM)	relative viability ([3]; first compound 0.01 µM)	relative viability ([3]; first compound 0.03162 µM)	relative viability ([3]; first compound 0.1 µM)	relative viability ([3]; first compound 0.3162 µM)	relative viability ([3]; first compound 1 µM)	relative viability ([4]; first compound 0.08 µM)	relative viability ([4]; first compound 0.253 µM)	relative viability ([4]; first compound 0.8 µM)	relative viability ([4]; first compound 2.53 µM)	relative viability ([4]; first compound 8 µM)
NCI-H441	1.23	1.2	1.28	1.35	1.28	0.411	0.328	0.411	0.391	0.384	0.654	0.449	0.601	0.482	0.446	0.564	0.52	0.571	0.688	0.521
NCI-H322M	0.435	0.533	0.423	0.515	0.534	0.76	0.893	0.924	0.961	0.982	0.545	0.463	0.481	0.503	0.483	0.687	0.76	0.725	0.613	0.575
LU99A	0.462	0.293	0.312	0.319	0.273	0.256	0.213	0.242	0.302	0.254	0.324	0.332	0.346	0.349	0.279	0.233	0.262	0.275	0.27	0.237
NCI-H2126	0.884	1.07	0.97	0.973	1.11	0.825	0.855	0.9	0.875	0.865	0.514	0.459	0.459	0.414	0.467	0.894	0.898	0.869	0.88	0.887
LC-2-ad	0.687	0.795	0.707	0.71	0.818	0.858	–	1.09	0.768	0.965	0.435	0.46	0.467	0.409	0.412	0.661	0.693	0.657	0.627	0.616
NCI-H1975	0.707	0.665	0.884	0.434	0.546	0.252	0.17	0.201	0.249	0.184	0.288	0.305	0.331	0.224	0.289	0.747	0.442	0.458	0.395	0.235
NCI-H1944	–	0.445	–	0.485	0.431	0.674	0.771	0.792	0.654	0.72	–	0.334	0.352	0.317	0.345	0.377	0.379	0.377	0.327	0.377
NCI-H2085	0.872	0.915	0.819	0.893	0.886	0.381	0.428	0.444	0.383	0.393	0.522	0.455	0.469	0.396	0.595	0.844	0.784	0.757	0.769	0.587
PC-3 [JPC-3]	0.785	0.873	0.837	0.645	0.642	0.715	0.723	0.532	0.633	0.629	0.71	0.761	0.761	0.459	0.656	0.926	–	1.01	1.07	0.924
NCI-H2087	1.22	1.35	1.2	1.5	1.3	0.17	0.183	0.137	0.21	0.126	0.894	0.859	0.837	0.93	0.805	0.596	0.503	0.607	0.448	0.462
NCI-H1755	0.404	0.452	0.468	0.45	0.479	0.519	0.46	0.428	0.37	0.486	–	0.387	0.402	0.482	0.423	0.796	0.829	0.769	0.598	0.533
EMC-BAC-2	0.862	1.01	1.03	1.05	1.01	1.15	1.23	1.15	1.1	1.13	0.553	0.518	0.58	0.552	0.503	0.424	–	0.384	0.366	0.326
NCI-H596	1.24	0.978	1.07	1.1	0.973	0.938	0.959	0.809	0.911	0.814	0.214	0.345	0.438	0.385	0.35	0.674	0.546	0.673	0.6	0.613
NCI-H650	1.07	1.02	1.23	1.15	0.946	0.866	0.803	0.929	0.687	0.893	0.921	0.909	1.09	0.864	0.929	0.338	0.348	0.392	0.368	0.367
NCI-H1915	–	0.734	–	0.747	0.718	0.897	0.857	0.833	0.787	0.776	–	0.97	0.664	0.853	0.908	0.271	0.263	0.25	0.243	0.23
ChaGo-K-1	0.928	0.916	0.946	0.823	0.806	0.525	0.605	0.57	0.589	0.372	0.929	0.466	0.929	0.823	0.598	0.407	0.389	0.424	0.418	0.351
NCI-H1355	0.726	0.747	0.791	0.481	0.517	0.64	0.583	0.375	0.477	0.502	0.454	0.264	0.418	0.331	0.441	0.579	0.531	0.444	0.385	0.407
